Results: ChEMBL document CHEMBL1743141, “Membrane transporters in drug development” (Nat Rev Drug Discov, 2010)
Peptide text beside a SMILES is read from it.

How the values were obtained:
Assay type in all cases: ADME
[1] = target: T1, Solute carrier family 15 member 1 (Homo sapiens, UniProt P46059); experiment: Inhibitors of transporters of clinical importance in the absorption and disposition of drugs, PEPT1
T1 sequence (P46059 whole entry): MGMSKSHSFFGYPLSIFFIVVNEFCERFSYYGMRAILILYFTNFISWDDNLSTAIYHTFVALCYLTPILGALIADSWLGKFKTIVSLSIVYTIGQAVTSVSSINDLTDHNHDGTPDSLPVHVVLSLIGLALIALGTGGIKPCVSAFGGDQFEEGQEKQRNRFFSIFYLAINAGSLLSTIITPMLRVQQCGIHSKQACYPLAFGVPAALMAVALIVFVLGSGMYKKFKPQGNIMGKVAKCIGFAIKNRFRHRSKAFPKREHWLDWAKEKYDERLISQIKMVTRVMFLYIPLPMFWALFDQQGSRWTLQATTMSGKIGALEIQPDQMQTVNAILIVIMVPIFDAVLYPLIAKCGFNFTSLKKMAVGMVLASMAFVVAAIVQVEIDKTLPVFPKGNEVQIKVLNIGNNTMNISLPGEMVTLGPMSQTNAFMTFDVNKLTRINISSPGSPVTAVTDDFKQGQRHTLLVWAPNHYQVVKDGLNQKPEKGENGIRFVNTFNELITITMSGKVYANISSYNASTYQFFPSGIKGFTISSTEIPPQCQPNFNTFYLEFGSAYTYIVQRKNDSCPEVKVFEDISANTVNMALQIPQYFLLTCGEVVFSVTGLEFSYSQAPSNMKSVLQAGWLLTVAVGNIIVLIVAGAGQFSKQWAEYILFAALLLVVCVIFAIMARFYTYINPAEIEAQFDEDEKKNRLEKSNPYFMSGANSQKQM

[2] = target: T2, Solute carrier organic anion transporter family member 1B1 (Homo sapiens, UniProt Q9Y6L6); experiment: Inhibitors of transporters of clinical importance in the absorption and disposition of drugs, OATP1B1
T2 sequence (Q9Y6L6 whole entry): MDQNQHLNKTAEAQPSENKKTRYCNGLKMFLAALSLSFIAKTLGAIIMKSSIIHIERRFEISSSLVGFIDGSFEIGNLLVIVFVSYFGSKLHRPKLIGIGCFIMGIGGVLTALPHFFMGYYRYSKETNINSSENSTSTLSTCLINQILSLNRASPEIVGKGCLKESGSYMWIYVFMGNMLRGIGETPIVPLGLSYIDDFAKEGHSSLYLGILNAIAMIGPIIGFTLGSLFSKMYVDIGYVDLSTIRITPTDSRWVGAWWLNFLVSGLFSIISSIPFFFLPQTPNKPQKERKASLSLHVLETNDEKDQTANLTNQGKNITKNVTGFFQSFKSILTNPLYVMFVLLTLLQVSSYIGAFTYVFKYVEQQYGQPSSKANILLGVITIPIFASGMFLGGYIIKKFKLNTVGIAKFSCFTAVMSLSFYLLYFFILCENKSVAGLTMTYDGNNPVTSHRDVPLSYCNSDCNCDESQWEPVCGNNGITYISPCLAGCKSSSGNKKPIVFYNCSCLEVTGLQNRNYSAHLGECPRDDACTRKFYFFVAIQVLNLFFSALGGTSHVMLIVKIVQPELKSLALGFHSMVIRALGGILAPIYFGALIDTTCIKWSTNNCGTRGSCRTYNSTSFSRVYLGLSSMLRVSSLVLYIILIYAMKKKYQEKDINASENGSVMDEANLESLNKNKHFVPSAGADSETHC

[3] = target: T3, Solute carrier organic anion transporter family member 2B1 (Homo sapiens, UniProt O94956); experiment: Inhibitors of transporters of clinical importance in the absorption and disposition of drugs, OATP2B1
T3 sequence (O94956 whole entry): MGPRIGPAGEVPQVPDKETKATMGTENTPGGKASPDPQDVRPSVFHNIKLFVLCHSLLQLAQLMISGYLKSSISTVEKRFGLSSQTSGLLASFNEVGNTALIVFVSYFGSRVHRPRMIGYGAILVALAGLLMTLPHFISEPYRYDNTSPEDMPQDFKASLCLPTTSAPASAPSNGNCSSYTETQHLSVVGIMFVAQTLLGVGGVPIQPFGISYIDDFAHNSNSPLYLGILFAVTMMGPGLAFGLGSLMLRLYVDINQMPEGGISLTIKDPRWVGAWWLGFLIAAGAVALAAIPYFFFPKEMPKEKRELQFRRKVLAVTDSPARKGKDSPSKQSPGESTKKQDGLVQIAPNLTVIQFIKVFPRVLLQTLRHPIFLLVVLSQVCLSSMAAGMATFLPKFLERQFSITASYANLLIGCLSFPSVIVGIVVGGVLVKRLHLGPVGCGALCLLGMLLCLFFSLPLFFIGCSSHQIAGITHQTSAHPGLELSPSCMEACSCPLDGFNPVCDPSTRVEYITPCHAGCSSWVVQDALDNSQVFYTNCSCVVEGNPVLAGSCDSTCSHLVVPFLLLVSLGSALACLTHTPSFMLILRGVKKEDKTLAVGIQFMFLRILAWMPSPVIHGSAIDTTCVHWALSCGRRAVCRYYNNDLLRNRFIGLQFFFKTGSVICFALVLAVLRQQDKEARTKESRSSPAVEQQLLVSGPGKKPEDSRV

[4] = target: T4, Solute carrier organic anion transporter family member 1B3 (Homo sapiens, UniProt Q9NPD5); experiment: Inhibitors of transporters of clinical importance in the absorption and disposition of drugs, OATP1B3
T4 sequence (Q9NPD5 whole entry): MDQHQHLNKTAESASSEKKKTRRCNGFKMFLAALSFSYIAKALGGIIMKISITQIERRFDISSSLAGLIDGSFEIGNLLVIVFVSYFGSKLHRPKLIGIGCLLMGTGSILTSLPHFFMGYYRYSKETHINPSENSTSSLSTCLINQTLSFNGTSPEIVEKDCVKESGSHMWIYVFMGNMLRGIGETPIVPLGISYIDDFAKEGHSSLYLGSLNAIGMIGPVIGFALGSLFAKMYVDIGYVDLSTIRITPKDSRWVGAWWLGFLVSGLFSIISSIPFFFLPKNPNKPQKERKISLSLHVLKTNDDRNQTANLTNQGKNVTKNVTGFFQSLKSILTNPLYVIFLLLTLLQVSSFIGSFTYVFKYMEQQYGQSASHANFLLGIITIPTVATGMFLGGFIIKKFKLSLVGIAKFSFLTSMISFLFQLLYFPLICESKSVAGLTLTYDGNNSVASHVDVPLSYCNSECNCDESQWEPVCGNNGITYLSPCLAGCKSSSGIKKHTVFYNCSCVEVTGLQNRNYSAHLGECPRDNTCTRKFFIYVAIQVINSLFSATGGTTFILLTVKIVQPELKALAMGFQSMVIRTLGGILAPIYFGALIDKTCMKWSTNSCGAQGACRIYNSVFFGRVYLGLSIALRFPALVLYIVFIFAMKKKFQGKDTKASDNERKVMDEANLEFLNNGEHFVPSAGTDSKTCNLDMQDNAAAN

Bile salt export pump = Bile salt export pump (Homo sapiens, UniProt O95342); experiment: Inhibitors of transporters of clinical importance in the absorption and disposition of drugs, BSEP
Sequence of Bile salt export pump (O95342 whole entry): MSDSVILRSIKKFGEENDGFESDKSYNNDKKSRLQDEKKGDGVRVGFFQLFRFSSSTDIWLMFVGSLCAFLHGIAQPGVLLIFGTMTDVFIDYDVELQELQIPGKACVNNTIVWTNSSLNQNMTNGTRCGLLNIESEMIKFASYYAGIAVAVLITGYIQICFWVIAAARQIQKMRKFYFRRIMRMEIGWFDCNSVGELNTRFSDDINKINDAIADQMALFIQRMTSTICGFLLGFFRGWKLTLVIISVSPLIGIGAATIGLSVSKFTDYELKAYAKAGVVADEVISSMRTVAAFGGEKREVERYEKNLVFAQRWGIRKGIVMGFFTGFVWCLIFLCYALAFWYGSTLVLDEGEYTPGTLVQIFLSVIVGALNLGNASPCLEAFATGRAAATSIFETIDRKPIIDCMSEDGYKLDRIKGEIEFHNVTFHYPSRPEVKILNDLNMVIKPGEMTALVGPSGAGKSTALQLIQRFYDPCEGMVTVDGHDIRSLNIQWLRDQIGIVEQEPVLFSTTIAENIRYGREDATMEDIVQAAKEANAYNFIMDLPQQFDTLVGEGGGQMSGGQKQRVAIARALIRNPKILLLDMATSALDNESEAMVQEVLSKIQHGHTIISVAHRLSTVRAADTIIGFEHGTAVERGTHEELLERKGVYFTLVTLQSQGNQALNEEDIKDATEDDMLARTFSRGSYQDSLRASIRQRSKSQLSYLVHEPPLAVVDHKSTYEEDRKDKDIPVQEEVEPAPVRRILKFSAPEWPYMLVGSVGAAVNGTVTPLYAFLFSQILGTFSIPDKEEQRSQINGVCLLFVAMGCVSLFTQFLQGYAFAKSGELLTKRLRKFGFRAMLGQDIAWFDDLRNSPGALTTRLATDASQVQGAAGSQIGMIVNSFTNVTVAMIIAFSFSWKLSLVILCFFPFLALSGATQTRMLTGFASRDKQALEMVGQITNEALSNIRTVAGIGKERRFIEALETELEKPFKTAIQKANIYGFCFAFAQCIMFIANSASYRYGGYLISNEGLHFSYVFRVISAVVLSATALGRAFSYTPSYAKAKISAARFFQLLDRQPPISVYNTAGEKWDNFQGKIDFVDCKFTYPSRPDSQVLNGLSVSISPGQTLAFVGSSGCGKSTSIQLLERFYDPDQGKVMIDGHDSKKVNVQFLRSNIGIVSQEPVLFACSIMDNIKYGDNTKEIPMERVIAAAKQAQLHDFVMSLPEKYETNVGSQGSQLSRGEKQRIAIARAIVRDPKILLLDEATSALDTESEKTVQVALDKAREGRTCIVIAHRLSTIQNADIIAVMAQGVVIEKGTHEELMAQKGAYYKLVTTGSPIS

[5] = target: T5, Solute carrier organic anion transporter family member 1A2 (Homo sapiens, UniProt P46721); experiment: Inhibitors of transporters of clinical importance in the absorption and disposition of drugs, OATP1A2
T5 sequence (P46721 whole entry): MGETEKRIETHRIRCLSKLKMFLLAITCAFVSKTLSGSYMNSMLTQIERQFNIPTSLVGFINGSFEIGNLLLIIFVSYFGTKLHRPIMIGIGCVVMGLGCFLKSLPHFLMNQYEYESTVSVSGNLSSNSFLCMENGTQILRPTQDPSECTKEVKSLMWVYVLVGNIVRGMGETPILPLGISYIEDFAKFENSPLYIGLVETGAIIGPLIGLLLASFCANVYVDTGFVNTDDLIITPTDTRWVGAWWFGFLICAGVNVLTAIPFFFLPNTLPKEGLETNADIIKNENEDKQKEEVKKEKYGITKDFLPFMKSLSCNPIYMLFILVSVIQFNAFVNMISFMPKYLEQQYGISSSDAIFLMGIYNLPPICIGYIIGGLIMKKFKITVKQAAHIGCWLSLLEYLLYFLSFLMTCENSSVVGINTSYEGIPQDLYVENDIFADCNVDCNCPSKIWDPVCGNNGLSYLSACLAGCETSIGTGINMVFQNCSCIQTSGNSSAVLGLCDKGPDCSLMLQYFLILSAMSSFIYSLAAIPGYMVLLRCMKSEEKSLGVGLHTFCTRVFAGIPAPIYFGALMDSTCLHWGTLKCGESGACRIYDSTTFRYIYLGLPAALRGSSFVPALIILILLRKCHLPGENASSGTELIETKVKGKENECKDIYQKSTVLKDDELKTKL

| Activity [1] | Activity [2] | Activity [3] | Activity [4] | Activity [5] | Compound | Activity (Bile salt export pump) |
| --- | --- | --- | --- | --- | --- | --- |
| transporter inhibitor | – | – | – | – | NCC(=O)N1CCC[C@H]1C(=O)O [GLYCYL PROLINE] (H-Gly-Pro-OH) | – |
| – | transporter inhibitor | transporter inhibitor | transporter inhibitor | transporter inhibitor | CO[C@H]1/C=C/O[C@@]2(C)Oc3c(C)c(O)c4c(O)c(c(/C=N/N5CCN(C)CC5)c(O)c4c3C2=O)NC(=O)/C(C)=C\C=C\[C@H](C)[C@H](O)[C@@H](C)[C@@H](O)[C@@H](C)[C@H](OC(C)=O)[C@@H]1C [RIFAMPIN] | transporter inhibitor |
